Results on twelve compounds are retold here after paper PMC8279156, “Design, synthesis, HER2 inhibition and anticancer evaluation of new substituted 1,5-dihydro-4,1-benzoxazepines” (Journal of Enzyme Inhibition and Medicinal Chemistry, 2021).

The test system of data set [1] is MCF-7 human breast cancer cell line. As to conditions: previously described compounds, cited from earlier work.
The test system is the same in data set [2]. Description: Proliferation assay (sulphorhodamine-B) in MCF-7. The conditions noted are these: MCF7, 72 h of treatment, mean ± SD. Format: cell-based. The protocol:
(§1) MCF-7, HCT-116, A-375 and SKBR cells were grown at 37 °C in an atmosphere containing 5% CO2, with Dulbecco’s modified Eagle Medium (DMEM) (Gibco, Grand Island, NY) supplemented with 10% heat-inactivated foetal bovine serum (FBS) (Gibco), 2% L-glutamine, 2.7% sodium bicarbonate, 1% Hepes buffer, 40 mg/L gentamicin and 500 mg/L ampicillin.
(§2) Compounds were dissolved in DMSO and stored at −20 °C. For each experiment, the stock solutions were further diluted in medium to obtain the desired concentrations. The final solvent concentration in cell culture was ≤ 0.1% v/v of DMSO, a concentration without any effect on cell replication. Parallel cultures of MCF-7, HCT-116, A375 and SKBR-3 cells in medium with DMSO were used as controls.
(§3) The effect of the compounds on cell viability was assessed using the sulphorhodamine-B colorimetric assay. Cells suspension (1 × 10^3 cells/well) were seeded onto 24-well plates and incubated for 24 h. The cells were then treated with different concentrations of drugs in their respective culture medium and maintained with the treatment for 3 days. Three days later, wells were aspirated and fresh medium and drug were added. Then cell cultures were maintained for 3 additional days. Thereafter, a Titertek Multiscan (Flow, Irvine, CA) at 492 nm was used. The linearity of the SRB assay was evaluated with a cell number for each cell stock before each cell growth experiment. The IC50 values were calculated from semi-logarithmic dose–response curves by linear interpolation. All the experiments were plated in triplicate wells and were carried out twice.
(§4) We then investigated the effects of the target compounds on cell proliferation on the human breast cancer cell lines MCF-7 and SKBR-3, the human colon carcinoma cell line HCT-116 and the human malignant melanoma cell line A-375. The antiproliferative activity of 7–9 was evaluated using sulphorhodamine-B colorimetric assay after 72 h of treatment (Table 3).
(§5) All experiments were conducted in duplicate and gave similar results. The data are mean ± SD of three independent determinations. MCF-7: human breast cancer cell line; SKBR3: human breast cancer cell line; HCT-116: human colon cancer cell line and A-375: human melanoma cancer cell line.

The test system of data set [3] is SKBR3 human breast cancer cell line. Description: Proliferation assay (sulphorhodamine-B) in SKBR3. Format: cell-based. The conditions noted are these: SK-BR-3, 72 h of treatment, mean ± SD. On the procedure: as §1, §2, §3, §4, §5
Data set [4] relates to A-375 human melanoma cancer cell line. Description: Proliferation assay (sulphorhodamine-B) in A-375. Format: cell-based. The conditions noted are these: 72 h of treatment, mean ± SD, read-out: IC50 A375. The protocol:
as §1, §2, §3, §4, §5

Data set [5] deals with HCT-116 human colon cancer cell line. As to the kind of experiment: Proliferation assay (sulphorhodamine-B) in HCT-116. It is filed as cell-based. As to conditions: 72 h of treatment, mean ± SD. The protocol: as §1, §2, §3, §4, §5
The target in data set [6] is isolated HER2 (Homo sapiens, UniProt P04626). Description: HER2 inhibition assay, radiometric protein kinase assay (33PanQinase Activity Assay). Format: biochemical. The conditions noted are these: for ΔΔG Experiment (3 -> L): binding free energy difference relative to bozepinib (3), extracted from IC50 values; for IC50: isolated HER2, radiometric assay, 10 concentrations in singlicate. On the procedure: The IC50 profile of the target compounds was determined using isolated HER2. IC50 values were measured by testing 10 concentrations (1 × 10 ^−4 M to 3 × 10 ^−9 M) of each compound in singlicate. A radiometric protein kinase assay (33PanQinase® Activity Assay) was used for measuring the kinase activity of HER2. The assay was performed in 96-well FlashPlatesTM from PerkinElmer (Boston, MA) in a 50 µl reaction volume. […] The reaction cocktails were incubated at 30 °C for 60 min. The reaction was halted with 50 µl of 2% (v/v) H3PO4, plates were aspirated and washed two times with 200 µl 0.9% (w/v) NaCl. Incorporation of ^33Pi was determined with a microplate scintillation counter (Microbeta, Wallac, Waltham, MA).
Chain of isolated HER2 (P04626 23-1255): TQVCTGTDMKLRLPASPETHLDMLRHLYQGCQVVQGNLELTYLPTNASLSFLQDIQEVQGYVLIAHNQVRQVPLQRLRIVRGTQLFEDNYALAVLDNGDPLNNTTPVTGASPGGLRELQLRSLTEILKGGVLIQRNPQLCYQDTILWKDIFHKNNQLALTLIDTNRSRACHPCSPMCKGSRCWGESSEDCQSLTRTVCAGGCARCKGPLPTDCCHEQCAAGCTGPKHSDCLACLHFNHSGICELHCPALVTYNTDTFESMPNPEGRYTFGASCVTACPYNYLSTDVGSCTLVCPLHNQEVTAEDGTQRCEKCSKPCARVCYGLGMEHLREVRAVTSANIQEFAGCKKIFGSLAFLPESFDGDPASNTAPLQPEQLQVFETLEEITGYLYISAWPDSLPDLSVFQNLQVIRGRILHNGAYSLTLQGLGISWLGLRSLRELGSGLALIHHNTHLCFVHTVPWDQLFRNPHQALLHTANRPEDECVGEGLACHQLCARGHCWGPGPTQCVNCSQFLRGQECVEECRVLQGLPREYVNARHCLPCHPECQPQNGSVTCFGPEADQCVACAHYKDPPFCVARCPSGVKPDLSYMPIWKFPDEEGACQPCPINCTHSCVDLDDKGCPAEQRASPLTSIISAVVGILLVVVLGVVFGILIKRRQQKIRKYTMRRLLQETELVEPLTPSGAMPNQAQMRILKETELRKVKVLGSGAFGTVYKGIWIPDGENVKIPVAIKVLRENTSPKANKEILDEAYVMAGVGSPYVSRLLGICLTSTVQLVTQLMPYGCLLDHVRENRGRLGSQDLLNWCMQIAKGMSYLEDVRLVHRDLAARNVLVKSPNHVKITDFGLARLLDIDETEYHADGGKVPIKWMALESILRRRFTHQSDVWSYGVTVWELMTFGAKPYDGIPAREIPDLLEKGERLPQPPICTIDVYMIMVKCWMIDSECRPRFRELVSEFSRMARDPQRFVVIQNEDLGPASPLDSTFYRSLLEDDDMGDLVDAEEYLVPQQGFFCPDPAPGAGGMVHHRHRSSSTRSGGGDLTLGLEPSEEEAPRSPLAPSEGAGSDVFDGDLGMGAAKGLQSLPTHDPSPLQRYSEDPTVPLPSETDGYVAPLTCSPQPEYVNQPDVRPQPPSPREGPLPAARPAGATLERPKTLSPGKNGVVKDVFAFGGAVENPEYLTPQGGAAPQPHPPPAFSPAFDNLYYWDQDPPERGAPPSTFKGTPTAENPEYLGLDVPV
Human epidermal growth factor receptor 2 (HER2) is overexpressed in about 20% of all breast cancers. […] This prompted us to evaluated compounds 7–9 for their in vitro HER2 inhibitory effect. The IC50 profile of the target compounds was determined against isolated HER2 using a radiometric assay (Table 1).

Data set [7] has as its system MCF-7, SKBR3, HCT-116 and A-375 cell lines. Description: Proliferation assay (sulphorhodamine-B), all tumour cell lines studied. Format: cell-based. As to conditions: Homo sapiens, span over the four cell lines, read-out: IC50 against all the tumour cell lines studied. On the procedure: as §1
Compounds were dissolved in DMSO and stored at −20 °C. For each experiment, the stock solutions were further diluted in medium to obtain the desired concentrations. The final solvent concentration in cell culture was ≤ 0.1% v/v of DMSO, a concentration without any effect on cell replication. […]
The effect of the compounds on cell viability was assessed using the sulphorhodamine-B colorimetric assay. […] The linearity of the SRB assay was evaluated with a cell number for each cell stock before each cell growth experiment. The IC50 values were calculated from semi-logarithmic dose–response curves by linear interpolation. […]
We then investigated the effects of the target compounds on cell proliferation on the human breast cancer cell lines MCF-7 and SKBR-3, the human colon carcinoma cell line HCT-116 and the human malignant melanoma cell line A-375. The antiproliferative activity of 7–9 was evaluated using sulphorhodamine-B colorimetric assay after 72 h of treatment (Table 3). […]

The mark [8] stands for this setting: read-out: in vitro antiproliferative activity against MCF-7.

Like-named read-outs stand apart in the source and are kept apart here. A value given as a limit tells only on which side of the number the result lay.

For the compound `O=[N+]([O-])c1ccc(S(=O)(=O)N2CC(n3cnc4ncnc(Sc5ccccc5)c43)OCc3ccccc32)cc1` (stereo not shown) [Compound 1], the IC50 in data set [1] (setting [8]) was 0.86 µM.

As to `O=[N+]([O-])c1ccccc1S(=O)(=O)N1CC(n2cnc3ncnc(Sc4ccccc4)c32)OCc2ccccc21` (stereo not shown) [Compound 2], the IC50 in data set [1] (setting [8]) was 2.59 µM.

For the compound `O=[N+]([O-])c1ccccc1S(=O)(=O)N1CC(n2cnc3c(Cl)nc(Cl)nc32)OCc2ccccc21` (stereo not shown) [Compound 4], the IC50 in data set [1] (introduction, no reference number printed at the values, read-out: IC50 against the MCF-7 cell line) is 0.383 µM.

With `Cc1ccc(S(=O)(=O)N2CC(n3cnc4c(Cl)ncnc43)OCc3ccccc32)cc1` (stereo not shown) [Compound 7a, 6-Chloro-9-[1-(p-methylbenzenesulfonyl)-1,2,3,5-tetrahydro-4,1-benzoxazepine-3-yl]-9H-purine], the melting point – broadly, the temperature of the solid-liquid transition – lay in the range of 178 to 180 °C. In data set [2], this compound registered an IC50 of 0.12 µM. In data set [3], this compound yielded an IC50 of 1.08 ± 0.02 µM. Moreover, the IC50 in data set [4] turned out to be 0.78 ± 0.03 µM. In addition, the IC50 in data set [5] came to 1.03 ± 0.05 µM. Besides, in data set [6], the “ΔΔG Experiment (3 -> L)” value is on record as greater than 0.76 kcal/mol and the IC50 was greater than 100 µM. Further, in data set [7], the IC50 was no more than 1 µM.

In turn, `Cc1ccc(S(=O)(=O)N2CC(n3cnc4c(Br)ncnc43)OCc3ccccc32)cc1` (stereo not shown) [Compound 7b, 6-Bromo-9-[1-(p-methylbenzenesulfonyl)-1,2,3,5-tetrahydro-4,1-benzoxazepine-3-yl]-9H-purine] registered a melting point of 169 to 171 °C. Also, the IC50 in data set [2] was 9.57 ± 0.03 µM. For the same compound, the IC50 in data set [3] came out at 2.3 ± 0.04 µM. Further, the IC50 in data set [4] is 3.08 ± 0.01 µM. The same compound registered an IC50 in data set [5] of 3.1 ± 0.01 µM. Besides, in data set [6], the “ΔΔG Experiment (3 -> L)” value is recorded as greater than 0.76 kcal/mol and the IC50 is greater than 100 µM. Moreover, the IC50 in data set [7] was 2.3 to 9.57 µM.

`O=[N+]([O-])c1ccc(S(=O)(=O)N2CC(n3cnc4c(Sc5ccccc5)nc(Cl)nc43)OCc3ccccc32)cc1` (stereo not shown) [Compound 9a, 2-Chloro-6-phenylthio-9-[1-(p-nitrobenzenesulfonyl)-1,2,3,5-tetrahydro-4,1-benzoxazepine-3-yl]-9H-purine] had a melting point of 183 to 185 °C. In data set [2], the IC50 is 26.46 ± 0.03 µM. Further, in data set [3], the IC50 was 71.69 ± 0.5 µM. In addition, in data set [4], the IC50 was determined as 13.3 ± 0.07 µM. The compound also gave an IC50 in data set [5] of 19.62 ± 0.01 µM. Moreover, in data set [6], the “ΔΔG Experiment (3 -> L)” value was -0.8 kcal/mol and the IC50 amounted to 7.31 µM.

`O=[N+]([O-])c1ccc(S(=O)(=O)N2CC(n3cnc4c(Oc5ccccc5)nc(Cl)nc43)OCc3ccccc32)cc1` (stereo not shown) [Compound 9b, 2-Chloro-6-phenoxy-9-[1-(p-nitrobenzenesulfonyl)-1,2,3,5-tetrahydro-4,1-benzoxazepine-3-yl]-9H-purine] registered a melting point of 210 to 212 °C. In addition, the IC50 in data set [2] was 22.4 ± 0.03 µM. In data set [3], this compound came in with an IC50 greater than 100 µM. Further, the IC50 in data set [4] is greater than 100 µM. This compound also returned an IC50 in data set [5] greater than 100 µM. This compound also displayed an IC50 in data set [6] of 13.3 µM.

Consider `CN(C)c1nc(Cl)nc2c1ncn2C1CN(S(=O)(=O)c2ccc([N+](=O)[O-])cc2)c2ccccc2CO1` (stereo not shown) [Compound 9c, 2-Chloro-6-dimethylamino-9-[1-(p-nitrobenzenesulfonyl)-1,2,3,5-tetrahydro-4,1-benzoxazepine-3-yl]-9H-purine], for which the melting point lay in the range of 203 to 205 °C. Further, the IC50 in data set [2] came to 20.7 ± 0.02 µM. The compound further gave an IC50 in data set [3] of 41.7 ± 0.79 µM. Also, the IC50 in data set [4] is greater than 100 µM. In addition, in data set [5], the IC50 was found to be 87 ± 0.19 µM. Besides, in data set [6], the “ΔΔG Experiment (3 -> L)” value is -0.44 kcal/mol and the IC50 was 14.4 µM.

In turn, `O=[N+]([O-])c1ccc(S(=O)(=O)N2CC(n3cnc4c(Nc5ccccc5)nc(Cl)nc43)OCc3ccccc32)cc1` (stereo not shown) [Compound 9d, 2-Chloro-6-anilino-9-[1-(p-nitrobenzenesulfonyl)-1,2,3,5-tetrahydro-4,1-benzoxazepine-3-yl]-9H-purine] gave a melting point of 182 to 183 °C. In data set [2], this compound yielded an IC50 of 13.8 ± 0.02 µM. The IC50 in data set [3] is greater than 100 µM. Also, the IC50 in data set [4] was greater than 100 µM. The IC50 in data set [5] was greater than 100 µM. Also, in data set [6], the “ΔΔG Experiment (3 -> L)” value was 0.41 kcal/mol and the IC50 was 55.5 µM.

In turn, `O=[N+]([O-])c1ccccc1S(=O)(=O)N1CC(n2cnc3c(Sc4ccccc4)nc(Cl)nc32)OCc2ccccc21` (stereo not shown) [Compound 9e, 2-Chloro-6-phenylthio-9-[1-(o-nitrobenzenesulfonyl)-1,2,3,5-tetrahydro-4,1-benzoxazepine-3-yl]-9H-purine] yielded a melting point of 212 to 214 °C. This compound returned an IC50 in data set [2] of 20.5 ± 0.06 µM. In data set [3], this compound registered an IC50 greater than 100 µM. In data set [4], the IC50 was found to be 92.2 ± 8.9 µM. This compound also showed an IC50 in data set [5] greater than 100 µM. The IC50 in data set [6] is 11.5 µM.

As for `O=[N+]([O-])c1ccccc1S(=O)(=O)N1CC(n2cnc3c(Oc4ccccc4)nc(Cl)nc32)OCc2ccccc21` (stereo not shown) [Compound 9f, 2-Chloro-6-phenoxy-9-[1-(o-nitrobenzenesulfonyl)-1,2,3,5-tetrahydro-4,1-benzoxazepine-3-yl]-9H-purine], the melting point was in the range of 142 to 144 °C. Besides, the IC50 in data set [2] came to 18 ± 0.02 µM. In data set [3], this compound gave an IC50 greater than 100 µM. In data set [4], the IC50 is greater than 100 µM. This compound showed an IC50 in data set [5] greater than 100 µM. Moreover, the IC50 in data set [6] came to 24.6 µM.

The compound `O=[N+]([O-])c1ccccc1S(=O)(=O)N1CC(n2cnc3c(Nc4ccccc4)nc(Cl)nc32)OCc2ccccc21` (stereo not shown) [Compound 9g, 2-Chloro-6-anilino-9-[1-(o-nitrobenzenesulfonyl)-1,2,3,5-tetrahydro-4,1-benzoxazepine-3-yl]-9H-purine] had a melting point of 152 to 157 °C. In data set [2], this compound registered an IC50 of 22.5 ± 0.02 µM. In addition, the IC50 in data set [3] was greater than 100 µM. In data set [4], the IC50 was greater than 100 µM. Moreover, the IC50 in data set [5] is greater than 100 µM. The IC50 in data set [6] is greater than 100 µM.
